Measurements from ChEMBL document CHEMBL1201862, “PubChem BioAssay data set” (2004).
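Growth conditions: 96-well plates. Treatment: test compound, 48 hours, 5 concentrations. Analysis: linear interpolation between bracketing concentrations; unreached endpoints set to highest concentration. GI50 is the concentration that inhibits growth by half.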 The source made the active and inactive calls. Cut-off read from the data, not from the text of the source: active = GI50 up to about 1.1 µM and inactive = higher.

Assays:
Assay in all cases: DTP human tumour cell line panel, 48 h
RXF 393 = system: RXF 393
OVCAR-5 = system: OVCAR-5
ACHN = system: ACHN
SF-539 = system: SF-539
HOP-62 = system: HOP-62
SN12C = system: SN12C
KM12 = system: KM12
UACC-257 = system: UACC-257
U-251 = system: U-251
SF-268 = system: SF-268
SNB-75 = system: SNB-75
NCI-H23 = system: NCI-H23
Malme-3M = system: Malme-3M
OVCAR-4 = system: OVCAR-4
HT-29 = system: HT-29
HCT-15 = system: HCT-15
SK-MEL-5 = system: SK-MEL-5

Compound | GI50 (RXF 393) | GI50 (OVCAR-5) | GI50 (ACHN) | GI50 (SF-539) | GI50 (HOP-62) | GI50 (SN12C) | GI50 (KM12) | GI50 (UACC-257) | GI50 (U-251) | GI50 (SF-268) | GI50 (SNB-75) | GI50 (NCI-H23) | GI50 (Malme-3M) | GI50 (OVCAR-4) | GI50 (HT-29) | GI50 (HCT-15) [µM] | GI50 (SK-MEL-5)
Cc1ccc(N(C(=O)CC(=O)NN)C(=O)c2ccccc2Cl)cc1 | > 100 µM (inactive) | > 100 µM (inactive) | > 100 µM (inactive) | > 100 µM (inactive) | > 100 µM (inactive) | > 100 µM (inactive) | > 100 µM (inactive) | > 100 µM (inactive) | > 100 µM (inactive) | > 100 µM (inactive) | > 100 µM (inactive) | > 100 µM (inactive) | > 100 µM (inactive) | > 100 µM (inactive) | > 100 µM (inactive) | > 100 | 
Cn1nc(N)nc1N=S(C)(C)=N | > 100 µM (inactive) | > 100 µM (inactive) | > 100 µM (inactive) | > 100 µM (inactive) | > 100 µM (inactive) | > 100 µM (inactive) | > 100 µM (inactive) | > 100 µM (inactive) | > 100 µM (inactive) | > 100 µM (inactive) | > 100 µM (inactive) | > 100 µM (inactive) | > 100 µM (inactive) | > 100 µM (inactive) | > 100 µM (inactive) | > 100 | > 100 µM (inactive)
COC(=O)c1nn(C(=N)c2ccc(Cl)cc2)c2c1CCC2 | > 100 µM (inactive) | > 100 µM (inactive) | > 100 µM (inactive) | > 100 µM (inactive) | > 100 µM (inactive) | > 100 µM (inactive) | > 100 µM (inactive) | > 100 µM (inactive) | > 100 µM (inactive) | > 100 µM (inactive) | > 100 µM (inactive) | > 100 µM (inactive) | > 100 µM (inactive) | > 100 µM (inactive) | > 100 µM (inactive) | > 100 | > 100 µM (inactive)
c1cc2c(cc1C1OCC3C(c4ccc5c(c4)OCO5)OCC13)OCO2 (stereo not drawn) | 57.9 µM (inactive) | 55.6 µM (inactive) | 80.7 µM (inactive) | > 100 µM (inactive) | > 100 µM (inactive) | 92.3 µM (inactive) | 58.9 µM (inactive) | 53.8 µM (inactive) | 83 µM (inactive) | > 100 µM (inactive) | 50.8 µM (inactive) | 38.5 µM (inactive) | 61.9 µM (inactive) | > 100 µM (inactive) | 35.6 µM (inactive) | 50.6 | 28.4 µM (inactive)
COC(=O)CC(NC(=O)OCc1ccccc1)C(C(C)=O)C(=O)OCc1ccccc1 (stereo not drawn) | > 10 µM (inactive) | > 100 µM (inactive) | > 31.6 µM (inactive) | > 31.6 µM (inactive) | > 10 µM (inactive) | > 31.6 µM (inactive) | > 31.6 µM (inactive) | > 31.6 µM (inactive) | > 31.6 µM (inactive) | > 31.6 µM (inactive) | 20.2 µM (inactive) | > 31.6 µM (inactive) | > 10 µM (inactive) | > 10 µM (inactive) | > 10 µM (inactive) | > 31.6 | > 31.6 µM (inactive)
O=C1C(=O)N(c2cc(Cl)ccc2Cl)C(=O)C(=O)C1c1nc2ccccc2s1 | > 100 µM (inactive) | > 100 µM (inactive) | > 100 µM (inactive) | > 100 µM (inactive) | > 100 µM (inactive) | > 100 µM (inactive) | > 100 µM (inactive) | 98.2 µM (inactive) | > 100 µM (inactive) | 86.5 µM (inactive) | 49.4 µM (inactive) | > 100 µM (inactive) | > 100 µM (inactive) | > 100 µM (inactive) | > 100 µM (inactive) | > 100 | > 100 µM (inactive)
CC1=Nc2c(ccc3c2C(=O)c2ccccc2C3=O)NC(c2ccncc2)C1 (stereo not drawn) | > 10 µM (inactive) | 95.1 µM (inactive) | 6.75 µM (inactive) | > 10 µM (inactive) | 35.1 µM (inactive) | 57.4 µM (inactive) | 5.07 µM (inactive) | > 10 µM (inactive) | > 10 µM (inactive) | > 10 µM (inactive) | 5.96 µM (inactive) | > 10 µM (inactive) | > 10 µM (inactive) | > 10 µM (inactive) | > 10 µM (inactive) | 9.93 | > 100 µM (inactive)
COC1=C(OC)CCC(/C(C#N)=C/c2ccc(OC)c(OC)c2)=C1 | 36.7 µM (inactive) | > 100 µM (inactive) | > 100 µM (inactive) | 59.3 µM (inactive) | 31.1 µM (inactive) | > 100 µM (inactive) | > 100 µM (inactive) | > 100 µM (inactive) | 34.5 µM (inactive) | 37.2 µM (inactive) | 16 µM (inactive) | 79.1 µM (inactive) |  | > 100 µM (inactive) | 80.9 µM (inactive) | > 100 | > 100 µM (inactive)
Cc1ccccc1NC(=O)C(=O)CC(=O)c1sc(-n2nc(-c3ccccc3)cc2-c2ccccc2)nc1C | > 100 µM (inactive) | > 100 µM (inactive) | > 100 µM (inactive) | > 100 µM (inactive) | > 100 µM (inactive) | > 100 µM (inactive) | > 100 µM (inactive) | > 100 µM (inactive) | > 100 µM (inactive) | > 100 µM (inactive) | > 100 µM (inactive) | > 100 µM (inactive) | > 100 µM (inactive) | > 100 µM (inactive) | > 100 µM (inactive) | > 100 | 
COC(=O)CC1NC(=O)[C@@H]1C(C)O (stereo partly drawn) | > 100 µM (inactive) |  | > 100 µM (inactive) | > 100 µM (inactive) | > 100 µM (inactive) | > 100 µM (inactive) |  | > 100 µM (inactive) | > 100 µM (inactive) | > 100 µM (inactive) | > 100 µM (inactive) |  | > 100 µM (inactive) | > 100 µM (inactive) | > 100 µM (inactive) | > 100 | > 100 µM (inactive)
Brc1c2nc3ccccc3nc2n2ccc3ccccc3c12 |  | > 100 µM (inactive) | > 100 µM (inactive) | > 100 µM (inactive) | > 100 µM (inactive) | > 100 µM (inactive) | > 100 µM (inactive) | > 100 µM (inactive) | > 100 µM (inactive) | > 100 µM (inactive) | > 100 µM (inactive) | > 100 µM (inactive) | > 100 µM (inactive) | > 100 µM (inactive) |  | > 100 | > 100 µM (inactive)
COC(=O)C(CC(=O)c1c[nH]c2ccccc12)c1c[nH]c2ccccc12 (stereo not drawn) | 14 µM (inactive) | 22.2 µM (inactive) | 16.3 µM (inactive) | 19.3 µM (inactive) | 21.5 µM (inactive) |  | > 10 µM (inactive) | 15.4 µM (inactive) | 20.8 µM (inactive) |  | 21.2 µM (inactive) | 16.7 µM (inactive) | 19.1 µM (inactive) | 17.1 µM (inactive) | 16.9 µM (inactive) | 16.4 | 16.4 µM (inactive)
CC(C)(C)C(=O)/C=C/c1cccc(Oc2ccccc2)c1 | 15 µM (inactive) | 18.4 µM (inactive) | 15.2 µM (inactive) | 20.1 µM (inactive) | 45 µM (inactive) | 13.2 µM (inactive) | 11.6 µM (inactive) | 14 µM (inactive) | 11.3 µM (inactive) | > 10 µM (inactive) | 12.4 µM (inactive) | > 10 µM (inactive) | 18.8 µM (inactive) |  | 9.12 µM (inactive) | 19.4 | 14.4 µM (inactive)
CN(c1n[n+]2c(-c3ccccc3)csc2s1)c1n[n+]2c(-c3ccccc3)csc2s1 | > 100 µM (inactive) | > 100 µM (inactive) | > 100 µM (inactive) | > 100 µM (inactive) |  | > 100 µM (inactive) | > 100 µM (inactive) | > 100 µM (inactive) |  | > 100 µM (inactive) | > 100 µM (inactive) | > 100 µM (inactive) | 26.3 µM (inactive) | > 100 µM (inactive) | > 100 µM (inactive) | 0.144 | 89.5 µM (inactive)
COC1[C@@H](OC(C)=O)[C@@H](NC(=O)C(Cl)(Cl)Cl)C(I)[C@@H](N2C(=O)c3ccccc3C2=O)[C@H]1OC (stereo partly drawn) | > 100 µM (inactive) | > 100 µM (inactive) | > 100 µM (inactive) | 50.2 µM (inactive) | > 100 µM (inactive) | > 100 µM (inactive) | 6.59 µM (inactive) | > 100 µM (inactive) | > 100 µM (inactive) | > 100 µM (inactive) | > 100 µM (inactive) | > 100 µM (inactive) |  | 72.3 µM (inactive) | > 100 µM (inactive) | > 100 | > 100 µM (inactive)
CC(C)(C)[Si](C)(C)O/N=C\c1cccc(O[Si](C)(C)C(C)(C)C)c1 | 19.6 µM (inactive) | 20.1 µM (inactive) | 17.9 µM (inactive) | 21.9 µM (inactive) | 22.8 µM (inactive) | 19.9 µM (inactive) | 18 µM (inactive) | 21.9 µM (inactive) | 17.5 µM (inactive) | 18.3 µM (inactive) | 16.7 µM (inactive) |  | 42.4 µM (inactive) | 16.1 µM (inactive) | 16.5 µM (inactive) | 19.2 | 17.8 µM (inactive)
O=C1CCCCCCCCCCC(=O)C2CCOCCOCCOCCC1Cc1cccc(n1)C2 | 32 µM (inactive) |  | 69.8 µM (inactive) | > 100 µM (inactive) | > 100 µM (inactive) | 64.9 µM (inactive) | 59.3 µM (inactive) | > 100 µM (inactive) | > 100 µM (inactive) | 94.4 µM (inactive) | 49.3 µM (inactive) | > 100 µM (inactive) | > 100 µM (inactive) | 51.5 µM (inactive) | > 100 µM (inactive) | 83.2 | 42.4 µM (inactive)
